According to ChEMBL document CHEMBL5715260, “Selectivity Literature for EUbOPEN Chemogenomic Library” (2024):
Blank lines part the entries; values can stand above or below the compound they belong to.

Columns and labels:
Parameters in all cases: recommended concentration 1 uM
[1] = molecular target: Nuclear receptor subfamily 2 group E member 1 (Homo sapiens) (UniProt Q9Y466); test: Selectivity interaction (Reporter gene assay) EUB0000568a NR2E1; settings: screened at recom. conc., Selectivity number of off-targets 2.0, Selectivity number of targets 5.0, Source Knowledge inhouse
Nuclear receptor subfamily 2 group E member 1 (Homo sapiens), sequence (Q9Y466 whole entry): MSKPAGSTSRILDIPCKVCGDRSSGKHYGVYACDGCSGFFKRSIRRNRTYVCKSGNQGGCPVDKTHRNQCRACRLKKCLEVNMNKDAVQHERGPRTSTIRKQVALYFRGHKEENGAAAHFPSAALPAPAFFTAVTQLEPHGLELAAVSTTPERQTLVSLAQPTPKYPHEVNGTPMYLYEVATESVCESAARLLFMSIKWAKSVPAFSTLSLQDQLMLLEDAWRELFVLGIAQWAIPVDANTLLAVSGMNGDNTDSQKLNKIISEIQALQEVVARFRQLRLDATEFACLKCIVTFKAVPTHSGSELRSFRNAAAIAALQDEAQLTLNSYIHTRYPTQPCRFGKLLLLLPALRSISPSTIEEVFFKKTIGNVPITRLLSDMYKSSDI

[2] = molecular target: T1, Alpha trans-inducing protein (Human alphaherpesvirus 1) (UniProt A0A5J6DW59); test: Selectivity interaction (Reporter gene assay) EUB0000568a UL48
T1 sequence (A0A5J6DW59 as listed by the source): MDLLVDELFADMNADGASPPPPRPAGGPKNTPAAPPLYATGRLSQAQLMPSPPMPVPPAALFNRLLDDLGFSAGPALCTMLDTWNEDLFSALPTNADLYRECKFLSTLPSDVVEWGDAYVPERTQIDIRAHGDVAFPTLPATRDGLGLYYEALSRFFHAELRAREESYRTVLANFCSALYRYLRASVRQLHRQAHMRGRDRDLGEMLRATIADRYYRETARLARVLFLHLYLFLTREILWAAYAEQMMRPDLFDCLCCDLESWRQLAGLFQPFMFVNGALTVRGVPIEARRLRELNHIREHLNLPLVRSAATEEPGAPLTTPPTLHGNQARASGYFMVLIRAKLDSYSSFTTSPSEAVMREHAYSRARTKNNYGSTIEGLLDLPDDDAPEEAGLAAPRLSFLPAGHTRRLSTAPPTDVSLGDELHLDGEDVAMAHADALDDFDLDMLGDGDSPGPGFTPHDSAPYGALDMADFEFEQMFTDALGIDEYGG

[3] = molecular target: T2, Retinoic acid receptor RXR-alpha (Homo sapiens) (UniProt P19793); test: Selectivity interaction (Reporter gene assay) EUB0000568a RXRA; settings: reference bexarotene 1 uM, Selectivity number of off-targets 0.0, Selectivity number of targets 1.0, Source Knowledge inhouse
T2 sequence (whole entry): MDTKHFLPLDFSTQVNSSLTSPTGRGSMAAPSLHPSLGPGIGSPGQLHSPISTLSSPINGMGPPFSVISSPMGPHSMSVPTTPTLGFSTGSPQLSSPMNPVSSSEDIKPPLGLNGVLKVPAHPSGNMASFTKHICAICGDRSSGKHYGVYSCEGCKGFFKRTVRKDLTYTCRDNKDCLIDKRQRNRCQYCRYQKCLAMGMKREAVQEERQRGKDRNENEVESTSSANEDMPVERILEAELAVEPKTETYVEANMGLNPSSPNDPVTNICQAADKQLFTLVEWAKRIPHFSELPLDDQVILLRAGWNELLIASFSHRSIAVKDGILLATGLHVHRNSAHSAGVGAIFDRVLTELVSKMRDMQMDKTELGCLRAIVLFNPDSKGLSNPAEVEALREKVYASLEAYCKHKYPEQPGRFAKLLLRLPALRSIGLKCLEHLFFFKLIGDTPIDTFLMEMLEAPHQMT

[4] = molecular target: T3, Nuclear receptor subfamily 2 group C member 1 (Homo sapiens) (UniProt P13056); test: Selectivity interaction (Reporter gene assay) EUB0000568a NR2C1; settings: screened at recom. conc., Selectivity number of off-targets 2.0, Selectivity number of targets 5.0, Source Knowledge inhouse
T3 sequence (whole entry): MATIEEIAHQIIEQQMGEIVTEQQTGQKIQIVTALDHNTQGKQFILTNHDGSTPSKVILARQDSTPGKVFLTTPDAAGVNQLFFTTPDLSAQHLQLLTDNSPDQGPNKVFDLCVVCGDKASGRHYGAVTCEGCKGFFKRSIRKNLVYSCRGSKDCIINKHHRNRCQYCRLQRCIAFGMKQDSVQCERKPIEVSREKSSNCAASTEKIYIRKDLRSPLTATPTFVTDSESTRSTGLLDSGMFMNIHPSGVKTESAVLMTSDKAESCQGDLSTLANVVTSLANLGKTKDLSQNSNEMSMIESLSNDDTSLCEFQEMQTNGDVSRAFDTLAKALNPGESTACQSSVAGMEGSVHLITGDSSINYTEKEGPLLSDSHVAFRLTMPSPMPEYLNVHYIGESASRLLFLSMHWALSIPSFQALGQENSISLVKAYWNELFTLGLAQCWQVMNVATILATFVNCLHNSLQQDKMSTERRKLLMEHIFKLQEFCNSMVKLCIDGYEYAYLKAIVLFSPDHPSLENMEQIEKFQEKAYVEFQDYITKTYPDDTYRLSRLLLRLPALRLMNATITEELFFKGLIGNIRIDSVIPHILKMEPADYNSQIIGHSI

[5] = molecular target: T4, Hepatocyte nuclear factor 4-alpha (Homo sapiens) (UniProt P41235); test: Selectivity interaction (Reporter gene assay) EUB0000568a HNF4A
T4 sequence (whole entry): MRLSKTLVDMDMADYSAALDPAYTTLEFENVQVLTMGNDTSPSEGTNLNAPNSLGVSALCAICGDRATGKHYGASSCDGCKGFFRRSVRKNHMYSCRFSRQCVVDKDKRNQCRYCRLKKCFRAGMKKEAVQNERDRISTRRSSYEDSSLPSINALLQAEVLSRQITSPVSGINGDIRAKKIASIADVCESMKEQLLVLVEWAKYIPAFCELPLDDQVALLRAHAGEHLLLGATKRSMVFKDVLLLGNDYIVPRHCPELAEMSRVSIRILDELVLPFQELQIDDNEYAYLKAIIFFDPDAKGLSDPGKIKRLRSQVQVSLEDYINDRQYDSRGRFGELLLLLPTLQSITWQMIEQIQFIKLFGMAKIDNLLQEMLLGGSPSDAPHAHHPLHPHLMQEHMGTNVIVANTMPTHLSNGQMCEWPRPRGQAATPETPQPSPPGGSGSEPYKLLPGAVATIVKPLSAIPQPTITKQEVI

[6] = molecular target: Nuclear receptor subfamily 4immunitygroup A member 1 (Homo sapiens) (UniProt P22736); test: Selectivity interaction (Reporter gene assay) EUB0000568a NR4A1
Nuclear receptor subfamily 4immunitygroup A member 1 (Homo sapiens), sequence (P22736 whole entry): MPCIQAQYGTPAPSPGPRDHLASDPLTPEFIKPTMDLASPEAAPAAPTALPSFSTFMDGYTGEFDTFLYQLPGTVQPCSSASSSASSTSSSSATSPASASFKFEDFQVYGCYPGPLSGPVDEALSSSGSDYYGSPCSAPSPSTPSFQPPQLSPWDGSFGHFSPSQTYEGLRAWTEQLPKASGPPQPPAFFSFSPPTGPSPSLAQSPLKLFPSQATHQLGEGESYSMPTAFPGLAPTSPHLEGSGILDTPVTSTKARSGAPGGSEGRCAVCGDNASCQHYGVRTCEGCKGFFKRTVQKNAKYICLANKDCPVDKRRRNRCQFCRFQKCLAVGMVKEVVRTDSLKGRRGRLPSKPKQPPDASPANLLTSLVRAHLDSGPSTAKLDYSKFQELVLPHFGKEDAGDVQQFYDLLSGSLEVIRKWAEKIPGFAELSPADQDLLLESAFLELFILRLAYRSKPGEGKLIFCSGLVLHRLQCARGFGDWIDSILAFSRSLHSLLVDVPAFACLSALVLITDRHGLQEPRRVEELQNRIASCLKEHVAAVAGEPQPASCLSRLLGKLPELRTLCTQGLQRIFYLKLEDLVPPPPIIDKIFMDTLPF

[7] = molecular target: Steroidogenic factor 1 (Homo sapiens) (UniProt Q13285); test: Selectivity interaction (Reporter gene assay) EUB0000568a NR5A1
Steroidogenic factor 1 (Homo sapiens), sequence (Q13285 whole entry): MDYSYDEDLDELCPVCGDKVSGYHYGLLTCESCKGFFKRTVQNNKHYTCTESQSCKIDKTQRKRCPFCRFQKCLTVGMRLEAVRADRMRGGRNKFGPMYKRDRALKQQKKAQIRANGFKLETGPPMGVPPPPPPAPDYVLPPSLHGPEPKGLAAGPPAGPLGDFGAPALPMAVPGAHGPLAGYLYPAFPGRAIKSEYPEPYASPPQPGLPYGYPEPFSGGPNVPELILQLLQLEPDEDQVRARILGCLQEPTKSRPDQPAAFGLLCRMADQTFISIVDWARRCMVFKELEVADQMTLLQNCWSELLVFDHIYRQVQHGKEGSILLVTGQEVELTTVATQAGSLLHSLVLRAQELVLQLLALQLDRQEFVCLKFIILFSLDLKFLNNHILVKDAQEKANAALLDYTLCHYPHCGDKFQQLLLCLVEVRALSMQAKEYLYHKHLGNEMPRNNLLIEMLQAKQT

[8] = molecular target: T1, Alpha trans-inducing protein (Human alphaherpesvirus 1); test: Selectivity interaction (Reporter gene assay) EUB0000570a UL48
[9] = molecular target: T4, Hepatocyte nuclear factor 4-alpha (Homo sapiens); test: Selectivity interaction (Reporter gene assay) EUB0000570a HNF4A
[10] = molecular target: Nuclear receptor subfamily 2 group E member 1 (Homo sapiens) (UniProt Q9Y466); test: Selectivity interaction (Reporter gene assay) EUB0000570a NR2E1
[11] = molecular target: T3, Nuclear receptor subfamily 2 group C member 1 (Homo sapiens); test: Selectivity interaction (Reporter gene assay) EUB0000570a NR2C1
[12] = molecular target: T2, Retinoic acid receptor RXR-alpha (Homo sapiens); test: Selectivity interaction (Reporter gene assay) EUB0000570a RXRA; settings: reference bexarotene 1 uM, Selectivity number of off-targets 0.0, Selectivity number of targets 1.0, Source Knowledge inhouse
[13] = molecular target: Steroidogenic factor 1 (Homo sapiens) (UniProt Q13285); test: Selectivity interaction (Reporter gene assay) EUB0000570a NR5A1
[14] = molecular target: Nuclear receptor subfamily 4immunitygroup A member 1 (Homo sapiens) (UniProt P22736); test: Selectivity interaction (Reporter gene assay) EUB0000570a NR4A1
[15] = molecular target: T3, Nuclear receptor subfamily 2 group C member 1 (Homo sapiens); test: Selectivity interaction (Reporter gene assay) EUB0000563a NR2C1
[16] = molecular target: Steroidogenic factor 1 (Homo sapiens) (UniProt Q13285); test: Selectivity interaction (Reporter gene assay) EUB0000563a NR5A1
[17] = molecular target: Nuclear receptor subfamily 2 group E member 1 (Homo sapiens) (UniProt Q9Y466); test: Selectivity interaction (Reporter gene assay) EUB0000563a NR2E1
[18] = molecular target: T1, Alpha trans-inducing protein (Human alphaherpesvirus 1); test: Selectivity interaction (Reporter gene assay) EUB0000563a UL48
[19] = molecular target: T2, Retinoic acid receptor RXR-alpha (Homo sapiens); test: Selectivity interaction (Reporter gene assay) EUB0000563a RXRA; settings: reference bexarotene 1 uM, Selectivity number of off-targets 0.0, Selectivity number of targets 1.0, Source Knowledge inhouse
[20] = molecular target: Nuclear receptor subfamily 4immunitygroup A member 1 (Homo sapiens) (UniProt P22736); test: Selectivity interaction (Reporter gene assay) EUB0000563a NR4A1
[21] = molecular target: T4, Hepatocyte nuclear factor 4-alpha (Homo sapiens); test: Selectivity interaction (Reporter gene assay) EUB0000563a HNF4A
[22] = molecular target: Nuclear receptor subfamily 4immunitygroup A member 1 (Homo sapiens) (UniProt P22736); test: Selectivity interaction (Reporter gene assay) EUB0000551aCl NR4A1
[23] = molecular target: T3, Nuclear receptor subfamily 2 group C member 1 (Homo sapiens); test: Selectivity interaction (Reporter gene assay) EUB0000551aCl NR2C1
[24] = molecular target: Steroidogenic factor 1 (Homo sapiens) (UniProt Q13285); test: Selectivity interaction (Reporter gene assay) EUB0000551aCl NR5A1
[25] = molecular target: T2, Retinoic acid receptor RXR-alpha (Homo sapiens); test: Selectivity interaction (Reporter gene assay) EUB0000551aCl RXRA; settings: reference bexarotene 1 uM, Selectivity number of off-targets 0.0, Selectivity number of targets 1.0, Source Knowledge inhouse
[26] = molecular target: T1, Alpha trans-inducing protein (Human alphaherpesvirus 1); test: Selectivity interaction (Reporter gene assay) EUB0000551aCl UL48
[27] = molecular target: Nuclear receptor subfamily 2 group E member 1 (Homo sapiens) (UniProt Q9Y466); test: Selectivity interaction (Reporter gene assay) EUB0000551aCl NR2E1
[28] = molecular target: T4, Hepatocyte nuclear factor 4-alpha (Homo sapiens); test: Selectivity interaction (Reporter gene assay) EUB0000551aCl HNF4A
[29] = molecular target: T2, Retinoic acid receptor RXR-alpha (Homo sapiens); test: Selectivity interaction (Reporter gene assay) EUB0000555a RXRA
[30] = molecular target: T1, Alpha trans-inducing protein (Human alphaherpesvirus 1); test: Selectivity interaction (Reporter gene assay) EUB0000555a UL48
[31] = molecular target: T4, Hepatocyte nuclear factor 4-alpha (Homo sapiens); test: Selectivity interaction (Reporter gene assay) EUB0000555a HNF4A
[32] = molecular target: Nuclear receptor subfamily 4immunitygroup A member 1 (Homo sapiens) (UniProt P22736); test: Selectivity interaction (Reporter gene assay) EUB0000555a NR4A1
[33] = molecular target: T3, Nuclear receptor subfamily 2 group C member 1 (Homo sapiens); test: Selectivity interaction (Reporter gene assay) EUB0000555a NR2C1
[34] = molecular target: Nuclear receptor subfamily 2 group E member 1 (Homo sapiens) (UniProt Q9Y466); test: Selectivity interaction (Reporter gene assay) EUB0000555a NR2E1
[35] = molecular target: Steroidogenic factor 1 (Homo sapiens) (UniProt Q13285); test: Selectivity interaction (Reporter gene assay) EUB0000555a NR5A1

Fold activation [1]: 2.03
P-value [2]: 0.0191
Relative activation [3]: 0.61%
Fold activation [4]: 1.5
Remaining activity [5]: 0.803
Fold activation [6]: 1.24
Fold activation [7]: 1.34
Compound: O=C(O)c1ccc2cc(-c3ccc(O)c(C45CC6CC(CC(C6)C4)C5)c3)ccc2c1

P-value [8]: 1.12e-05
Remaining activity [9]: 0.831
Remaining activity [10]: 0.776
Fold activation [11]: 1.03
Relative activation [12]: 0.731%
Remaining activity [13]: 0.849
Remaining activity [14]: 0.85
Compound: CN(CCOc1ccc(C[C@H](Nc2ccccc2C(=O)c2ccccc2)C(=O)O)cc1)c1ccccn1

Remaining activity [15]: 0.92
Remaining activity [16]: 0.803
Remaining activity [17]: 0.703
P-value [18]: 0.00141
Relative activation [19]: 0.694%
Remaining activity [20]: 0.9
Remaining activity [21]: 0.921
Compound: CCOC(=O)c1ccc(C#Cc2ccc3c(c2)C(C)(C)CCS3)nc1

Fold activation [22]: 1.12
Fold activation [23]: 1.14
Remaining activity [24]: 0.814
Relative activation [25]: 0.534%
P-value [26]: 0.00398
Fold activation [27]: 1.01
Fold activation [28]: 1
Compound: Cc1cccc(CN2CCN(C(c3ccccc3)c3ccc(Cl)cc3)CC2)c1 (stereo not given)

Relative activation [29]: 0.715%
P-value [30]: 8.08e-06
Remaining activity [31]: 0.559
Remaining activity [32]: 0.804
Remaining activity [33]: 0.695
Fold activation [34]: 1.03
Remaining activity [35]: 0.79
Compound: N[C@@H](Cc1cc(I)c(Oc2ccc(O)c(I)c2)c(I)c1)C(=O)O
